Results reported in patent US10179790B2 (THOMAS HELLEDAYS STIFTELSE FOR MEDICINSK FORSKNING, priority 2014, dated 2019).

What was measured:
MTH1 = MTH1 (Homo sapiens, UniProt P36639); test: MTH1 enzymatic assay and IC50 value determination (malachite green, 96- and 384-well format); assay type: biochemical; details: hydrolysis of dGTP (100 μM), MTH1 6 nM, pyrophosphatase-coupled malachite green, 15 minutes at 22° C.
Summary of the method: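 MTH1 (6 nM) hydrolysed dGTP (100 μM) for 15 min at 22 °C in Tris-acetate buffer with Mg2+, DTT, Tween 20 and excess pyrophosphatase, 1% DMSO. Pi detected with malachite green at 630 nm. IC50 from nonlinear 4-parameter fit of 11–12-point dilution series.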

cancer cell = test: Cell viability assay (resazurin); assay type: cell-based; details: 72 h; 3 days with compound, resazurin fluorescence; cell line not named
Summary of the method: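 Cells in DMEM GlutaMAX or line-appropriate medium are exposed to compound for 3 days at 37 °C, 5% CO2. Viability is read as resazurin fluorescence (Ex544/Em590) after 2 h incubation. In the 384-well format, cells are seeded onto 11 pre-dispensed concentrations (final DMSO <1%) and read after 3 h resazurin.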

Row | IC50 (MTH1) [µM] | IC50 (cancer cell) [µM] | Compound
1 | < 0.2 | < 0.5 | CCOC(=O)Nc1ccc(CCNc2cc(-c3cccc(C)c3C)nc(N)n2)cc1 [Example 31, ethyl N-[4-(2-{[2-amino-6-(2,3-dimethylphenyl)pyrimidin-4-yl]amino}ethyl)phenyl]carbamate]
2 | < 0.2 | < 0.5 | Cc1c(Cl)cccc1-c1cc(NCCc2ccc(S(=O)(=O)N3CCOCC3)cc2)nc(N)n1 [Example 207, 6-(3-chloro-2-methylphenyl)-N4-{2-[4-(morpholine-4-sulfonyl)phenyl]ethyl}pyrimidine-2,4-diamine]
3 | < 0.2 | < 0.5 | Cc1c(Cl)cccc1-c1cc(NCCc2ccc(NS(=O)(=O)C(C)C)cc2)nc(N)n1 [Example 86, N-[4-(2-{[2-amino-6-(3-chloro-2-methylphenyl)pyrimidin-4-yl]amino}ethyl)phenyl]propane-2-sulfonamide]
4 | < 0.2 | < 0.5 | Cc1c(Cl)cccc1-c1cc(NCCc2ccc(S(=O)(=O)NC3COC3)cc2)nc(N)n1 [Example 209, 4-(2-{[2-amino-6-(3-chloro-2-methylphenyl)pyrimidin-4-yl]amino}ethyl)-N-(oxetan-3-yl)benzene-1-sulfonamide]
5 | < 0.2 | < 0.5 | Cc1c(Cl)cccc1-c1cc(NCCOc2nccc(C(N)=O)n2)nc(N)n1 [Example 57, 2-(2-{[2-amino-6-(3-chloro-2-methylphenyl)pyrimidin-4-yl]amino}ethoxy)pyrimidine-4-carboxamide]
6 | < 0.2 | < 0.5 | Cc1c(Cl)cccc1-c1cc(NCCCOc2ccc(S(C)(=O)=O)cc2)nc(N)n1 [Example 204, 6-(3-chloro-2-methylphenyl)-N4-[3-(4-methanesulfonylphenoxy)propyl]pyrimidine-2,4-diamine]
7 | < 0.2 | < 0.5 | COC(=O)c1ccc(CCNc2cc(-c3cccc(Cl)c3C)nc(N)n2)cc1 [Example 182, methyl 4-[2-[[2-amino-6-(3-chloro-2-methyl-phenyl)pyrimidin-4-yl]amino]ethyl]benzoate]
8 | < 0.2 | < 0.5 | Cc1c(Cl)cccc1-c1cc(NCCc2ccc(S(C)(=O)=O)cc2)nc(N)n1 [Example 1, 6-(3-chloro-2-methylphenyl)-4-N-[2-(4-methanesulfonylphenyl)ethyl]pyrimidine-2,4-diamine]
9 | < 0.2 | < 0.5 | COc1ccc(NCCNc2cc(-c3cccc(C)c3C)nc(N)n2)cc1S(N)(=O)=O [Example 32, 5-[(2-{[2-amino-6-(2,3-dimethylphenyl)pyrimidin-4-yl]amino}ethyl)amino]-2-methoxybenzene-1-sulfonamide]
10 | < 0.2 | < 0.5 | C#Cc1ccc(CCNc2cc(-c3cccc(Cl)c3C)nc(N)n2)cc1 [Example 212, 6-(3-chloro-2-methylphenyl)-N4-[2-(4-ethynylphenyl)ethyl]pyrimidine-2,4-diamine]
11 | < 0.2 | < 0.5 | Cc1c(Cl)cccc1-c1cc(NCCc2cccc(NC(=O)N3CCOCC3)c2)nc(N)n1 [Example 150, N-[3-[2-[[2-amino-6-(3-chloro-2-methyl-phenyl)pyrimidin-4-yl]amino]ethyl]phenyl]morpholine-4-carboxamide]
12 | < 0.2 | < 0.5 | Cc1c(Cl)cccc1-c1cc(NCCc2ccc(S(=O)(=O)NC3CCOCC3)cc2)nc(N)n1 [Example 210, 4-(2-{[2-amino-6-(3-chloro-2-methylphenyl)pyrimidin-4-yl]amino}ethyl)-N-(oxan-4-yl)benzene-1-sulfonamide]
13 | < 0.2 | < 0.5 | Cc1c(Cl)cccc1-c1cc(NCCc2ccc([S+](C)[O-])cc2)nc(N)n1 (centres unmarked) [Example 196, 6-(3-chloro-2-methylphenyl)-N4-[2-(4-methanesulfinylphenyl)ethyl]pyrimidine-2,4-diamine]
14 | < 0.2 | < 0.5 | CNC(=O)c1ccc(CCNc2cc(-c3cccc(Cl)c3C)nc(N)n2)cc1 [Example 89, 4-[2-[[2-amino-6-(3-chloro-2-methyl-phenyl)pyrimidin-4-yl]amino]ethyl]-N-methyl-benzamide]
15 | < 0.2 | < 0.5 | Cc1c(Cl)cccc1-c1cc(NCCc2ccc(C(=O)NC(C)CO)cc2)nc(N)n1 (centres unmarked) [Example 194, 4-(2-{[2-amino-6-(3-chloro-2-methylphenyl)pyrimidin-4-yl]amino}ethyl)-N-(1-hydroxypropan-2-yl)benzamide]
16 | < 0.2 | < 0.5 | Cc1c(Cl)cccc1-c1cc(NCCc2ccc(S(=O)(=O)C(C)C)cc2)nc(N)n1 [Example 169, 6-(3-chloro-2-methyl-phenyl)-N4-[2-(4-isopropylsulfonylphenyl)ethyl]pyrimidine-2,4-diamine]
17 | < 0.2 | < 0.5 | Cc1c(Cl)cccc1-c1cc(NCCSc2nccc(C(N)=O)n2)nc(N)n1 [Example 174, 2-[2-[[2-amino-6-(3-chloro-2-methyl-phenyl)pyrimidin-4-yl]amino]ethylsulfanyl]pyrimidine-4-carboxamide]
18 | < 0.2 | < 0.5 | Cc1c(Cl)cccc1-c1cc(NCCNc2ccc([S+](C)[O-])cc2)nc(N)n1 (centres unmarked) [Example 161, 6-(3-chloro-2-methyl-phenyl)-N4-[2-(4-methylsulfinylanilino)ethyl]pyrimidine-2,4-diamine]
19 | < 0.2 | < 0.5 | Cc1c(Cl)cccc1-c1cc(NCCNc2ccc3c(c2)NC(=O)CO3)nc(N)n1 [Example 35, 6-[(2-{[2-amino-6-(3-chloro-2-methylphenyl)pyrimidin-4-yl]amino}ethyl)amino]-3,4-dihydro-2H-1,4-benzoxazin-3-one]
20 | < 0.2 | < 0.5 | Cc1nc2ccc(NCC(C)(C)CNc3cc(-c4cccc(Cl)c4C)nc(N)n3)cc2s1 [Example 165, 6-(3-chloro-2-methyl-phenyl)-N4-[2,2-dimethyl-3-[(2-methyl-1,3-benzothiazol-6-yl)amino]propyl]pyrimidine-2,4-diamine]
21 | < 0.2 | < 0.5 | Cc1c(Cl)cccc1-c1cc(NCCc2ccc(NC(=O)C(C)(C)C)cc2)nc(N)n1 [Example 59, N-[4-(2-{[2-amino-6-(3-chloro-2-methylphenyl)pyrimidin-4-yl]amino}ethyl)phenyl]-2,2-dimethylpropanamide]
22 | < 0.2 | < 0.5 | Cc1c(Cl)cccc1-c1cc(NCCc2ccc(NC(=O)NC(C)(C)C)cc2)nc(N)n1 [Example 113, 1-[4-[2-[[2-amino-6-(3-chloro-2-methyl-phenyl)pyrimidin-4-yl]amino]ethyl]phenyl]-3-tert-butyl-urea]
23 | < 0.2 | < 0.5 | CC(=O)Nc1cccc(CCNc2cc(-c3cccc(Cl)c3C)nc(N)n2)c1 [Example 46, N-[3-(2-{[2-amino-6-(3-chloro-2-methylphenyl)pyrimidin-4-yl]amino}ethyl)phenyl]acetamide]
24 | < 0.2 | < 0.5 | Cc1c(Cl)cccc1-c1cc(NCCc2ccc(C(=O)OCCO)cc2)nc(N)n1 [Example 185, 2-hydroxyethyl 4-[2-[[2-amino-6-(3-chloro-2-methyl-phenyl)pyrimidin-4-yl]amino]ethyl]benzoate]
25 | < 0.2 | < 0.5 | Cc1c(Cl)cccc1-c1cc(NCCNc2ccc(S(=O)(=O)C(C)C)cc2)nc(N)n1 [Example 160, 6-(3-chloro-2-methyl-phenyl)-N4-[2-(4-isopropylsulfonylanilino)ethyl]pyrimidine-2,4-diamine]
